Measurements from US12533353B2, “Methods of treatment of cancer comprising CDC7 inhibitors” (CARNA BIOSCIENCES, INC., priority 2018, dated 2026).
Read-outs that look alike come from different tables or passages of the source. One block for each compound: values may come before it.

Columns and labels:
EOL-1 = assay: AML 3D culture, 5 days; type: cell-based; conditions: EOL-1 cell line
Method: (§1) The activity of SRA141 was investigated in in vitro and ex vivo three-dimensional (3D) cultures prepared from three AML cell lines (EOL-1, Molm-16 and MV-4-11) and three AML PDX models (AM5512, AM7440 and AM7577), respectively. Tumor cultures were treated with SRA141 (0.08 to 33 μM) for 5 days.

MV-4-11 = assay: AML 3D culture, 5 days; type: cell-based; conditions: MV-4-11 cell line
Method: as §1

Molm-16 = assay: AML 3D culture, 5 days; type: cell-based; conditions: Molm-16 cell line
Method: as §1

AM5512 = assay: AML PDX ex vivo 3D culture, 5 days; type: cell-based
Method: as §1

AM7440 = assay: AML PDX ex vivo 3D culture, 5 days; type: cell-based
Method: as §1

AM7577 = assay: AML PDX ex vivo 3D culture, 5 days; type: cell-based
Method: as §1

MOLM-13 cells [1] = assay: Co-treatment combination screen, synergy score, ATPlite; type: cell-based, human; conditions: simultaneous combination treatment, 72 hours
Method: (§2) The combination screen was performed using the co-treatment dosing schedule for SRA141 and the partner compound. Both enhancee (SRA141) and enhancer (partner compound) were added at time zero (0 h). Cells were exposed to SRA141 and the enhancer for the entire 72-hour treatment time. All data points were collected via automated processes and were subject to quality control and analyzed using proprietary software.
(§3) The Growth Inhibition (GI) was utilized as a measure of cell growth. GI percentages are calculated by applying the following test and equation: […]
(§4) This formula is derived from the Growth Inhibition calculation used in the National Cancer Institute's NCI-60 high throughput screen. […] These GI calculations were used in all single agent and combination data analysis for the combination screen.
(§5) To measure combination effects in excess of Loewe additivity, a scalar measure was used to characterize the strength of synergistic interaction termed the Synergy Score. The Synergy Score is calculated as: Synergy Score=log fX log fYΣ max(0,Idata)(Idata−ILoewe)
(§6) The fractional inhibition for each component agent and combination point in the matrix is calculated relative to the median of all vehicle-treated control wells. The Synergy Score equation integrates the experimentally-observed activity volume at each point in the matrix in excess of a model surface numerically derived from the activity of the component agents using the Loewe model for additivity. Additional terms in the Synergy Score equation (above) are used to normalize for various dilution factors used for individual agents and to allow for comparison of synergy scores across an entire experiment. The inclusion of positive inhibition gating or an Idata multiplier removes noise near the zero effect level, and biases results for synergistic interactions at that occur at high activity levels. Combinations with higher maximum Growth Inhibition (GI) effects or those which are synergistic at low concentrations will have higher Synergy Scores. Those combinations with Synergy Scores that statistically supersede baseline self-cross values can be considered synergistic. The magnitude of GI effects may be linked to the growth rate of cells which varies for each cell line examined.
(§7) Loewe Volume Score is used to assess the overall magnitude of the combination interaction in excess of the Loewe additivity model. Loewe Volume is particularly useful when distinguishing synergistic increases in a phenotypic activity (positive Loewe Volume) versus synergistic antagonisms (negative Loewe Volume).

[2] = system: Colo-205 colorectal adenocarcinoma cells; assay: Sequential treatment: SRA141 pre-treatment then partner agent, ATPlite; type: cell-based, human
MOLM-13 cells [3] = assay: as above; type: cell-based, human; conditions: 200 nM SRA141 pre-treatment 48 hrs compared to DMSO pre-treatment
MOLM-13 = assay: Combination of SRA141 with targeted agents, CTG and CTBlue, 72 hours, Bliss CI; type: cell-based; conditions: for combination effect with SRA141: MOLM-13, 72 hours
Method: The anti-apoptotic gene BCL-2 was inhibited in Molm-13 cells by treatment with 0.1 μM ABT-199 as previously described (see Examples 6 and 24). Cells were treated with 0.1 μM ABT-199 and SRA141 for 72 hours at SRA141 concentrations of 0.04 μM to 3.30 μM.

Colo-205 = assay: as above; conditions: Colo-205, 72 hours
AML-blast progenitors = assay: 3D growth in methylcellulose matrix, 14 days; type: cell-based
Method: (§8) The anti-proliferative activity of SRA141 (0.3-5 μM) was also evaluated in additional 3D growth studies conducted in a methylcellulose growth matrix using normal human myeloid (n=3) and AML-blast progenitors incubated for 14 days.

[4] = system: normal human myeloid progenitors (normal bone marrow); assay: 3D growth in methylcellulose matrix, 14 days; type: cell-based
Method: as §8

MV411 = assay: Combination of SRA141 with targeted agents, CTG and CTBlue, 72 hours, Bliss CI; conditions: MV411, 72 hours
COLO-205 cells = assay: Co-treatment combination screen, synergy score, ATPlite; type: cell-based, human; conditions: simultaneous combination treatment, 72 hours
Method: as §2, §3, §4, §5, §6, §7

SW620 = assay: Combination of SRA141 with targeted agents, CTG and CTBlue, 72 hours, Bliss CI; conditions: SW620, 72 hours

Structure (SMILES): N.N.[Cl][Pt][Cl] [Cisplatin]
IC50 (EOL-1): 640 nM
IC50 (MV-4-11): 620 nM
IC50 (Molm-16): 380 nM
IC50 (AM5512): 11900 nM
IC50 (AM7440): 1340 nM
IC50 (AM7577): 4180 nM

Structure (SMILES): Cn1ncnc1[C@H]1c2n[nH]c(=O)c3cc(F)cc(c23)N[C@@H]1c1ccc(F)cc1 [BMN673]
synergy with SRA141 (MOLM-13 cells [1]): strong synergies

EC50 fold change of partner agent ([2]; 200 nM SRA141 pre-treatment 48 hrs compared to DMSO pre-treatment): 3.3
EC50 fold change of partner agent (MOLM-13 cells [3]): 3.25
Structure (SMILES): CO[C@H]1C[C@@H]2CC[C@@H](C)[C@@](O)(O2)C(=O)C(=O)N2CCCC[C@H]2C(=O)O[C@H]([C@H](C)C[C@@H]2CC[C@@H](OCCO)[C@H](OC)C2)CC(=O)[C@H](C)/C=C(\C)[C@@H](O)[C@@H](OC)C(=O)[C@H](C)C[C@H](C)/C=C/C=C/C=C/1C [everolimus]

EC50 fold change of partner agent (MOLM-13 cells [3]): 2.63
Structure (SMILES): C=C(c1ccc(C(=O)O)cc1)c1cc2c(cc1C)C(C)(C)CCC2(C)C [Bexarotene]
synergy with SRA141 (MOLM-13 cells [1]): strong synergies
combination effect with SRA141 (MOLM-13): slight additive effects
combination effect with SRA141 (Colo-205): antagonistic effect

EC50 fold change of partner agent (MOLM-13 cells [3]): 2.63
Structure (SMILES): CC(=O)Nc1cccc(-n2c(=O)n(C3CC3)c(=O)c3c(Nc4ccc(I)cc4F)n(C)c(=O)c(C)c32)c1 [Trametinib]

IC50 (EOL-1; Homo sapiens, EOL1): 2 nM
IC50 (MV-4-11; Homo sapiens, MV4-11): 50 nM
IC50 (Molm-16; MOLM16): 70 nM
IC50 (AM5512): 8890 nM
IC50 (AM7440): 270 nM
Structure (SMILES): Nc1ccn([C@@H]2O[C@H](CO)[C@@H](O)[C@@H]2O)c(=O)n1 [Cytarabine, cytosine arabinoside, reference compound]
primary AML samples responding with a Therapeutic Index [(Primary AML IC50)÷(BMNC control IC50)] (AML-blast progenitors; 9 primary AML samples): 2 out of 9
IC50 (AML-blast progenitors; AML810 censored, read-out: mean IC50, AML samples): ~4 nM
IC50 (AML-blast progenitors; AML-blast progenitor 180, read-out: IC50): 3.6 nM
IC50 (AML-blast progenitors; AML-blast progenitor 190, read-out: IC50): 6.1 nM
IC50 (AML-blast progenitors; AML-blast progenitor 200, read-out: IC50): 2.8 nM
IC50 (AML-blast progenitors; AML-blast progenitor 250, read-out: IC50): 2.2 nM
IC50 (AML-blast progenitors; AML-blast progenitor 260, read-out: IC50): 3 nM
IC50 (AML-blast progenitors; AML-blast progenitor 717, read-out: IC50): 3.8 nM
IC50 (AML-blast progenitors; AML-blast progenitor 810 (sample censored), read-out: IC50): 9.6 nM
IC50 (AML-blast progenitors; AML-blast progenitor 915, read-out: IC50): 8.1 nM
IC50 (AML-blast progenitors; AML-blast progenitor 917, read-out: IC50): 5.7 nM
IC50 (AML-blast progenitors; with AML 810, read-out: Mean AML-blast progenitor IC50 (with AML 810)): 5 ± 2.6 nM
IC50 (AML-blast progenitors; without AML 810, read-out: Mean AML-blast progenitor IC50 (without AML 810)): 4.4 ± 2 nM
IC50 ([4]; Normal bone marrow 111, read-out: IC50): 4.8 nM
IC50 ([4]; Normal bone marrow 525 (first line), read-out: IC50): 3.7 nM
IC50 ([4]; Normal bone marrow 525 (second line), read-out: IC50): 3.8 nM
IC50 ([4]; mean of 3 samples, read-out: Mean normal bone marrow IC50): 4.1 ± 0.6 nM
IC50 ([4]; read-out: mean IC50, normal bone marrow preparations): ~4 nM

Structure (SMILES): CC1=C(/C=C/C(C)=C/C=C/C(C)=C/C(=O)O)C(C)(C)CCC1 [Tretinoin]
combination effect with SRA141 (MOLM-13): slight additive effects
combination effect with SRA141 (MV411): slight additive effects

Structure (SMILES): C[C@@]1(CO)[C@H](O)CC[C@@]2(C)[C@H]1CC[C@H]1C[C@@H]3C[C@@]12CC[C@]3(O)CO [aphidicolin]
EC50 fold change of partner agent ([2]; 1 μM SRA141 pre-treatment 48 hrs compared to DMSO pre-treatment): 4.60

Structure (SMILES): CC1(C)CCC(CN2CCN(c3ccc(C(=O)NS(=O)(=O)c4ccc(NCC5CCOCC5)c([N+](=O)[O-])c4)c(Oc4cnc5[nH]ccc5c4)c3)CC2)=C(c2ccc(Cl)cc2)C1 [ABT-199]
synergy with SRA141 (MOLM-13 cells [1]): strong synergies
Combination Index (MOLM-13; 0.1 μM ABT-199 with SRA141 at 0.12, 0.37, 1.10 and 3.30 μM, 72 hours): less than 1
combination effect with SRA141 (MOLM-13): act synergistically

Structure (SMILES): COc1c(OCCCN2CCOCC2)ccc2c1N=C(NC(=O)c1cnc(N)nc1)N1CCN=C21 [Copanlisib]
synergy with SRA141 (COLO-205 cells): Strong synergies
combination effect with SRA141 (MOLM-13): slight additive effects
combination effect with SRA141 (Colo-205): slight additive effect
combination effect with SRA141 (SW620): slight additive effects
combination effect with SRA141 (MV411): slight additive effects
